Experimental data: US11684614B2, “Formulations of hydroxypyridonate actinide/lanthanide decorporation agents” (priority 2017, dated 2023)

Tests used:
CYP2D6 = CYP2D6 (Homo sapiens, UniProt P10635); test: CYP inhibition; type: in vitro ADME
[1] = Single oral dose GLP safety (toxicology) study in beagle dogs; type: in vivo
Procedure: The clinical formulation was tested in a single dose GLP toxicology and cardiovascular safety pharmacology study in beagle dogs.
Based on this study, the MTD in dogs after a single oral administration is considered to be greater than 150 mg/kg.

[2] = In vitro human liver microsome stability; type: in vitro ADME
[3] = Non-GLP 7-day repeat dose studies in beagle dogs, pharmacokinetics incl. iv group (SRI No. B677-13, M835-11); type: in vivo
From the text: These two pilot studies included an iv administration group so that oral bioavailability could be calculated. The oral bioavailability was low at <3% and essentially the same in both studies regardless of whether the dogs received formulated capsules or 3,4,3-L1(1,2-HOPO) dissolved in PBS without sodium oleate. […] Volume of distribution was 0.3 L/kg, consistent with drug that is distributed primarily to the extracellular space.

[4] = Plasma protein binding, human; type: in vitro ADME; conditions: tested at 10 μg/ml
Procedure: Plasma protein binding differed across species; it was greatest in dog (95%), intermediate in human (29%), and lowest in rat (5%) when tested at 10 μg/ml.

CYP3A4 = CYP3A4 (Homo sapiens, UniProt P08684); test: CYP inhibition; type: in vitro ADME
Sequence of CYP3A4 (P08684 whole entry): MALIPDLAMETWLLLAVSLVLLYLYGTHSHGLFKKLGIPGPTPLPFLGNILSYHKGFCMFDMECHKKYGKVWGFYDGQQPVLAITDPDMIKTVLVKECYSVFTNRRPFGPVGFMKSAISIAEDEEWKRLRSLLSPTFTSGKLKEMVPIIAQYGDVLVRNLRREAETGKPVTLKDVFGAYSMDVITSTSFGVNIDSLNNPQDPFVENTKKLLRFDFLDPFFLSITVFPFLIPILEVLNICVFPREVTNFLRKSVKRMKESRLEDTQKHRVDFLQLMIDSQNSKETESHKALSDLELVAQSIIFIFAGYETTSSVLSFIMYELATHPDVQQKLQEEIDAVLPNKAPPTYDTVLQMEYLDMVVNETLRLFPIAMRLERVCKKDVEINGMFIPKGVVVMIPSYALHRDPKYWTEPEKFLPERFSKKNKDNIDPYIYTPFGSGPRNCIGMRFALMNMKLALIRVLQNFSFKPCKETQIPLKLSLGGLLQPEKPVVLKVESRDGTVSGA

[5] = GLP single oral dose pharmacokinetic assessment in beagle dogs; type: in vivo
Procedure: Pharmacokinetic parameters in beagle dogs after a single oral administration of formulated capsules was determined in a GLP study. A validated bioanalytical method was used to determine the plasma concentration in 3 dogs/sex after capsule administration of 37.5, 75, and 150 mg/kg (50, 100, and 200 μmol/kg) of clinically formulated 3,4,3-L1(1,2-HOPO). […] Similarly, mean exposure, based on AUCinf, was 1979±777 hr·ng/ml and 4741 hr·ng/ml for low-dose males and females, respectively; 4317±1721 hr·ng/ml and 8610 hr·ng/ml for mid-dose males and females, respectively; and 12022±5458 hr·ng/ml and 8305±1607 hr·ng/ml for high-dose males and females, respectively. […] The mean t½ was consistently short across dose groups and ranged from 0.5 to 0.9 hr.

[6] = 28-day oral gavage study in Sprague Dawley rats (SRI No. M512-07); type: in vivo
[7] = Day 15, the one high-dose female with renal findings

Sequence of CYP2D6 (P10635 whole entry): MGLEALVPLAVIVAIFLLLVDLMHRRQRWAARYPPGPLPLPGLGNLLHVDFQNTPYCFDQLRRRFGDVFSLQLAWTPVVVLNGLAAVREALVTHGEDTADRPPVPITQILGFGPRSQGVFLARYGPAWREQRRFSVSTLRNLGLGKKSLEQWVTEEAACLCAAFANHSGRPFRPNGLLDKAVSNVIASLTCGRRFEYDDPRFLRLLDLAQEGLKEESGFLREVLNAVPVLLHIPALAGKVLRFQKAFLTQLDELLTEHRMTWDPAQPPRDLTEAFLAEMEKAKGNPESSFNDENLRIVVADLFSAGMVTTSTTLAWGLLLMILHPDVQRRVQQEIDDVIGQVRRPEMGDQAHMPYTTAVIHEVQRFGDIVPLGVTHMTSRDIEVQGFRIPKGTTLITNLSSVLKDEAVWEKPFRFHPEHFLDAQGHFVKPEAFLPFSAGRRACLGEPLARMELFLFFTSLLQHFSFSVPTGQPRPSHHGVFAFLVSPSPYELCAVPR

O=C(NCCCN(CCCCN(CCCNC(=O)c1cccc(=O)n1O)C(=O)c1cccc(=O)n1O)C(=O)c1cccc(=O)n1O)c1cccc(=O)n1O [3,4,3-L1(1,2-HOPO)]
inhibition of CYP2D6 activity (CYP2D6): did not inhibit | time of slight to moderate emesis post-dose ([1]; 3,4,3-L1(1,2-HOPO) treatment groups): < 2 h | changes in body weight, food consumption, ophthalmology, cardiovascular assessments, clinical pathology, urinalysis, gross necropsy observations, or organ weights ([1]; 37.5, 75, or 150 mg/kg): no meaningful changes | increase in BUN relative to pre-test [1, 7]: 1.8 fold | increase in CR relative to pre-test [1, 7]: 1.3 fold | serum iron, unsaturated iron binding capacity, total iron binding capacity, magnesium, and ferritin ([1]; Days 2 or 15, treated groups compared with controls): none of these parameters were meaningfully altered | Post-dose emesis ([1]; high dose group): 3 dogs out of 12 dogs per group | Extreme diarrhea, incidence ([1]; high-dose (150 mg/kg) males, Day 1): 33% | Slight diarrhea, incidence ([1]; high-dose group (150 mg/kg) females, Day 1): 33% | Slight diarrhea, incidence ([1]; high-dose group (150 mg/kg) males, Day 1): 17% | Renal findings (tubular casts and dilation, interstitial hemorrhage, hemosiderin pigmentation), incidence ([1]; high-dose group (150 mg/kg), Day 15 recovery sacrifice): 1 of 3 | Post-dose emesis ([1]; low dose group): 1 dogs out of 12 dogs per group | Diarrhea ([1]; low-dose group (37.5 mg/kg)): absent | Post-dose emesis ([1]; mid dose group): 2 dogs out of 12 dogs per group | Slight diarrhea, incidence ([1]; mid-dose group (75 mg/kg) females, Day 1): 67% | MTD ([1]; single oral administration, dogs): greater than 150 mg/kg | stability in human liver microsomes [2]: relatively stable | accumulation in the plasma ([3]; after 7 days of dosing): did not accumulate in the plasma | oral bioavailability ([3]; formulated capsules or API in PBS without sodium oleate): < 3% | Volume of distribution ([3]; iv 37.6 mg/kg (50 μmol/kg)): 0.3 L/kg | clearance (Cl) ([3]; iv 37.6 mg/kg (50 μmol/kg)): 9.9 mL/min/kg | mean AUCinf ([3]; iv 37.6 mg/kg (50 μmol/kg)): 64000 ng·h/mL | observed peak plasma level ([3]; iv 37.6 mg/kg (50 μmol/kg)): 115 ± 11 µg/mL | t½ ([3]; iv 37.6 mg/kg (50 μmol/kg)): 24 min | Plasma protein binding [4]: 29% | inhibition of CYP3A4 activity (CYP3A4): did not inhibit | mean AUCinf ([5]; high-dose (150 mg/kg) females): 8305 ± 1607 ng·h/mL | mean AUCinf ([5]; high-dose (150 mg/kg) males): 12022 ± 5458 ng·h/mL | mean Cmax and AUCinf, females compared with males ([5]; low and mid doses): 1.7- to 2.4 fold | mean AUCinf ([5]; low-dose (37.5 mg/kg) females): 4741 ng·h/mL | mean AUCinf ([5]; low-dose (37.5 mg/kg) males): 1979 ± 777 ng·h/mL | mean AUCinf ([5]; mid-dose (75 mg/kg) females): 8610 ng·h/mL | mean AUCinf ([5]; mid-dose (75 mg/kg) males): 4317 ± 1721 ng·h/mL | mean t½ ([5]; oral, across dose groups, dogs): 30 to 54 min | Tmax ([5]; single oral capsule dose, 37.5, 75, and 150 mg/kg, dogs): 36 to 66 min | renal findings ([6]; 28 days of oral gavage): no renal findings | soft stools or diarrhea ([6]; oral gavage 7.7-76.9 mg/kg (10-102 μmol/kg) for 28 days): not observed
